Experimental data from patent US9879008B2, “2,3,4,6-tetra-substituted benzene-1,5-diamine derivatives, preparation method therefor and medicinal use thereof” (SHANGHAI HAIYAN PHARMACEUTICAL TECHNOLOGY CO., LTD., priority 2014, dated 2018).
Where two headings read alike, the source gives them in different places.

Assays:
wild-type EGFR kinase = target: T1, wild-type EGFR kinase (Homo sapiens, UniProt P00533); assay: z-lyte inhibition test against wild-type EGFR kinase; type: biochemical; settings: 10 μM ATP, read-out: EGFR WT (IC50/nM);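 note: reaction volume 10 µL holding 0.8 ng/µL enzyme and 2 µM Tyr04 substrate, with DMSO at 2% once compounds are present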
T1 construct: purchased Invitrogen PV3872
T1 sequence (P00533 25-1210): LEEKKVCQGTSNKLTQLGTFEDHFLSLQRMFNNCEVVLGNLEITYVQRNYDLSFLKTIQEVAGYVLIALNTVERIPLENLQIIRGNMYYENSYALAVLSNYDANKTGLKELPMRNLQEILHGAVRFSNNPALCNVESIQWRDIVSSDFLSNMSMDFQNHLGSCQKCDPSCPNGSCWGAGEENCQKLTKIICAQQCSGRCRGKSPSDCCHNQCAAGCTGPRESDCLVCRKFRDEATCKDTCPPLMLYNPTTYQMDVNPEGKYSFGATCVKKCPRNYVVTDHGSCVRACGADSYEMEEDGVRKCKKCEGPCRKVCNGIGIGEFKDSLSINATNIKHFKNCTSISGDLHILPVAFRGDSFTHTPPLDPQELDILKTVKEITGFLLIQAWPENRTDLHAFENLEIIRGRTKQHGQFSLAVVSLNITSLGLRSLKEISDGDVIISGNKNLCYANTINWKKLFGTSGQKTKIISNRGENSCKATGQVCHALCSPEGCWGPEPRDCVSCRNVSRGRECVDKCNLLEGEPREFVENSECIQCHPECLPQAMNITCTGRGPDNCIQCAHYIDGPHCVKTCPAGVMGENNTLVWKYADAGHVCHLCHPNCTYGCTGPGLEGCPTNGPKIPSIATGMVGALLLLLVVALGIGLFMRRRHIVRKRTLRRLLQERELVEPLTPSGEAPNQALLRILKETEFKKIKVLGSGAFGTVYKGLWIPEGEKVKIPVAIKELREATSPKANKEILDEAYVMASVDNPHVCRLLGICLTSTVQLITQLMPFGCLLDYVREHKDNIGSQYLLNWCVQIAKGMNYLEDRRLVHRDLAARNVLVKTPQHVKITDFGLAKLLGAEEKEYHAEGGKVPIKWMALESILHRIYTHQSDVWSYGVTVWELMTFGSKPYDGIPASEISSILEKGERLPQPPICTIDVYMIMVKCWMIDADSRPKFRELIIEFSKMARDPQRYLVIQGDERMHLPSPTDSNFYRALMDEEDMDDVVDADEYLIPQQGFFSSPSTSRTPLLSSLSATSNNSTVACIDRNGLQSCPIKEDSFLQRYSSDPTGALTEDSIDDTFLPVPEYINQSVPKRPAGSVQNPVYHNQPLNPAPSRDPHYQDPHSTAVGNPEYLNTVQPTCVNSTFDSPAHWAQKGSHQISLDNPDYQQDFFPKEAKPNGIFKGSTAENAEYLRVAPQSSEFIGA

NIH3T3 cell = assay: MTT cytotoxicity against NIH3T3 cells; type: cell-based; settings: Mus musculus, read-out: MTT assay against NIH3T3 cell (IC50/nM)
A431 cells = assay: ELISA assay for cell activity, EGF-treated A431 cells; type: cell-based; settings: Homo sapiens, A-431, compound 1 h, then EGF 45 min;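 note: Serum-starved A431 cells, ELISA on lysates read as OD450 minus OD570, inhibition scaled between EGF-stimulated wells (0%) and unstimulated cell control (100%), DMSO 0.5% final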
H1975 cells = assay: ELISA assay for cell activity of EGFR T790M inhibitor, H1975 cells; settings: for Selective inhibitory activities against cell [IC50(A431 cell)/IC50(H1975 cell)]: ELISA, ratio of cell IC50 values; for IC50: Homo sapiens, NCI-H1975, 1 h, read-out: H1975 cell (IC50/nM)
H1975 cell = assay: MTT cytostatic activity, H1975 cell; type: cell-based; settings: Homo sapiens, NCI-H1975, 72 h, read-out: H1975 cell (IC50/nM);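 note: cells in 96-well plates exposed to compound for 72 h, then given MTT for a further 4 h at 37 °C under 5% CO2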
[1] = NIH3T3, cytotoxicity, MTT, 72 h

| IC50 (wild-type EGFR kinase) [nM] | Structure (SMILES) | IC50 (NIH3T3 cell; [1]) [nM] | other results |
| --- | --- | --- | --- |
| 259 | C=CC(=O)Nc1cc(Nc2ncc(F)c(O[C@@H]3CCN(C(C)=O)C3)n2)c(OC)cc1N1CCC(N(C)C)CC1 [Compound J-49] | – | – |
| 26 | C=CC(=O)Nc1cc(Nc2ncc(F)c(O[C@@H]3CCN(S(C)(=O)=O)C3)n2)c(OC)cc1N1CCC(N(C)C)CC1 [Compound J-51] | > 10000 | IC50 (A431 cells): 937 nM; Selective inhibitory activities against cell [IC50(A431 cell)/IC50(H1975 cell)] (H1975 cells): 15; IC50 (H1975 cells): 64 nM |
| – | C=CC(=O)Nc1cc(Nc2nccc(OC3CN(c4cnc5c(cnn5C)c4)C3)n2)c(OC)cc1N1CCC(N(C)C)CC1 [Compound J-19] | > 10000 | – |
| – | C=CC(=O)Nc1cc(Nc2nccc(OC3CN(C(=O)c4ccc(C)cc4)C3)n2)c(OC)cc1N(C)CCN(C)C [Compound J-22] | > 10000 | – |
| 24 | C=CC(=O)Nc1cc(Nc2ncc(Cl)c(N(C)C3CN(S(C)(=O)=O)C3)n2)c(OC)cc1N1CCC(N(C)C)CC1 [Compound J-73] | > 10000 | IC50 (A431 cells): 494 nM; Selective inhibitory activities against cell [IC50(A431 cell)/IC50(H1975 cell)] (H1975 cells): 19; IC50 (H1975 cells): 26 nM |
| – | C=CC(=O)Nc1cc(Nc2nccc(OC3CN(C(=O)c4ccccc4)C3)n2)c(OC)cc1N(C)CCN(C)C [Compound J-6] | > 10000 | – |
| 2 | C=CC(=O)Nc1cc(Nc2ncc(Cl)c(N[C@@H]3CCCN(CCF)C3)n2)c(OC)cc1N1CCC(N(C)C)CC1 [Compound J-67] | – | – |
| 113 | C=CC(=O)Nc1cc(Nc2ncc(Cl)c(OCC3CN(S(C)(=O)=O)C3)n2)c(OC)cc1N1CCC(N(C)C)CC1 [Compound J-34] | > 10000 | – |
| 119 | C=CC(=O)Nc1cc(Nc2nccc(OC3CN(C(=O)c4ccc(C)cc4)C3)n2)c(OC)cc1N1CCC(N(C)C)CC1 [Compound J-24] | 6000 | – |
| 14 | C=CC(=O)Nc1cc(Nc2ncc(Cl)c(OC3CN(S(C)(=O)=O)C3)n2)ccc1N1CCC(N(C)C)CC1 [Compound J-76] | – | – |
| – | C=CC(=O)Nc1cc(Nc2nccc(OC3CN(CCF)C3)n2)c(OC)cc1N(C)CCN(C)C [Compound J-53, N-(2-((2-(dimethylamino)ethyl)(methyl)amino)-5-(4-(1-(2-fluroethyl)azetidine-3-oxy)pyrimidine-2-amino)-4-methoxyphenyl) acrylamide] | > 10000 | IC50 (A431 cells): 225 nM; Selective inhibitory activities against cell [IC50(A431 cell)/IC50(H1975 cell)] (H1975 cells): 7.5; IC50 (H1975 cells): 30 nM |
| 6 | C=CC(=O)Nc1cc(Nc2ncc(F)c(NC3CN(S(C)(=O)=O)C3)n2)c(OC)cc1N1CCC(N(C)C)CC1 [Compound J-62] | > 10000 | – |
| 32 | C=CC(=O)Nc1cc(Nc2nccc(OC3CN(C(C)=O)C3)n2)c(OC)cc1N(C)CCN(C)C [Compound J-23] | > 10000 | – |
| – | C=CC(=O)Nc1cc(Nc2ncc(Cl)c(O[C@H]3CCCN(S(C)(=O)=O)C3)n2)c(OC)cc1N1CCC(N(C)C)CC1 [Compound J-42] | > 10000 | – |
| – | C=CC(=O)Nc1cc(Nc2nccc(OC3CN(C(=O)c4ccc(F)cc4)C3)n2)c(OC)cc1N(C)CCN(C)C [Compound J-21] | > 10000 | – |
| 154 | C=CC(=O)Nc1cc(Nc2nccc(OC3CCN(C(=O)OC(C)(C)C)CC3)n2)c(OC)cc1N1CCC(N(C)C)CC1 [Compound J-2, tert-butyl 4-(2-(5-acrylamido-4-(4-(dimethylamino)piperidine-1-yl)-2-methoxyphenylamino)pyrimidine-4-oxy)piperidine-1-formate] | – | – |

| IC50 (wild-type EGFR kinase) [nM] | Structure (SMILES) | IC50 (NIH3T3 cell; [1]) [nM] | other results |
| --- | --- | --- | --- |
| 72 | C=CC(=O)Nc1cc(Nc2nccc(OC3CN(S(=O)(=O)c4ccccc4)C3)n2)c(OC)cc1N1CCC(N(C)C)CC1 [Compound J-9, N-(2-(4-(dimethylamino)piperidine-1-yl)-4-methoxy-5-(4-(1-(phenylsulfonyl)azetidine-3-oxy)pyrimidino)phenyl)acrylamide] | > 10000 | – |
| – | C=CC(=O)Nc1cc(Nc2nccc(OC3CN(C(=O)c4ccccc4)C3)n2)c(OC)cc1N1CCC(N(C)C)CC1 [Compound J-8, N-(5-(4-(1-benzoylaza-3-oxy)pyrimidine-2-amino)-2-(4-(dimethylamino)piperidine-1-yl)-4-methoxylphenyl)acrylamide] | > 10000 | – |
| – | CN(C)C/C=C/C(=O)Nc1cc2c(Nc3ccc(F)c(Cl)c3)ncnc2cc1O[C@H]1CCOC1 [BIBW2992, Afatinib, reference compound] | – | IC50 (H1975 cell): 88 nM; IC50 (NIH3T3 cell; NIH3T3, 72 h): 2750 nM |
| 51 | C=CC(=O)Nc1cc(Nc2nccc(OC3CCN(S(C)(=O)=O)CC3)n2)c(OC)cc1N1CCC(N(C)C)CC1 [Compound J-5, N-(2-(4-(dimethylamino)piperidine-1-yl)-4-methoxy-5-(4-(1-(methylsulfonyl)piperidine-4-oxy)pyrimidine-2-amino)phenyl)acrylamide] | > 10000 | – |
| – | C=CC(=O)Nc1cc(Nc2nccc(OC3CN(c4cnc5c(cnn5C)c4)C3)n2)c(OC)cc1N(C)CCN(C)C [Compound J-15] | > 10000 | IC50 (A431 cells): 835 nM; Selective inhibitory activities against cell [IC50(A431 cell)/IC50(H1975 cell)] (H1975 cells): 11.1; IC50 (H1975 cells): 75 nM |
| 216 | C=CC(=O)Nc1cc(Nc2ncc(Cl)c(NC3CC3)n2)c(OC)cc1N1CCC(N(C)C)CC1 [Compound J-74] | – | IC50 (A431 cells): 2030 nM; Selective inhibitory activities against cell [IC50(A431 cell)/IC50(H1975 cell)] (H1975 cells): 7.7; IC50 (H1975 cells): 264 nM |
| 38 | C=CC(=O)Nc1cc(Nc2ncc(Cl)c(OC3CCN(S(C)(=O)=O)CC3)n2)c(OC)cc1N(C)CCN(C)C [Compound J-3, N-(5-(5-chloro-4-(1-(methylsulfonyl)piperidine-4-oxy)pyrimidine-2-amino)-2-((2-(dimethylamino)ethyl)(methyl)amino)-4-methoxylphenyl) acrylamide] | > 10000 | – |
| 181 | C=CC(=O)Nc1cc(Nc2ncc(Cl)c(NC3CN(C(C)=O)C3)n2)c(OC)cc1N1CCC(N(C)C)CC1 [Compound J-61] | > 10000 | – |
| – | C=CC(=O)Nc1cc(Nc2nccc(OC3CN(c4cnc5c(ccn5C)c4)C3)n2)c(OC)cc1N(C)CCN(C)C [Compound J-16] | > 10000 | – |
| 463 | C=CC(=O)Nc1cc(Nc2ncc(Cl)c(OC3(C)CN(S(C)(=O)=O)C3)n2)c(OC)cc1N1CCC(N(C)C)CC1 [Compound J-75] | – | IC50 (A431 cells): > 10000 nM; Selective inhibitory activities against cell [IC50(A431 cell)/IC50(H1975 cell)] (H1975 cells): >22.8; IC50 (H1975 cells): 438 nM |
| – | C=CC(=O)Nc1cc(Nc2nccc(OC3CN(c4cnc5ccccc5c4)C3)n2)c(OC)cc1N(C)CCN(C)C [Compound J-14, N-(2-((2-(dimethylamino)ethyl)(methyl)amino)-4-methoxy-5-(4-(1-(quinoline-3-yl)azetidine-3-oxy)pyrimidine-2-amino)phenyl)acrylamide] | > 10000 | – |
| 597 | C=CC(=O)Nc1cc(Nc2ncc(Cl)c(OCC3CN(C(C)=O)C3)n2)c(OC)cc1N1CCC(N(C)C)CC1 [Compound J-33] | > 10000 | – |
| 52 | C=CC(=O)Nc1cc(Nc2nccc(OC3CCN(S(C)(=O)=O)CC3)n2)c(OC)cc1N(C)CCN(C)C [Compound J-4, N-(2-((2-(dimethylamino)ethyl)(methyl)amino)-4-methoxy-5-(4-(1-(methylsulfonyl)piperidine-4-oxy)pyrimidine-2-amino)phenyl) acrylamide] | > 10000 | – |
| 105 | C=CC(=O)Nc1cc(Nc2ncc(Cl)c(NC3CCN(S(C)(=O)=O)CC3)n2)c(OC)cc1N1CCC(N(C)C)CC1 [Compound J-69] | > 10000 | – |
| 11 | C=CC(=O)Nc1cc(Nc2ncc(C#N)c(OC3CN(S(C)(=O)=O)C3)n2)c(OC)cc1N1CCC(N(C)C)CC1 [Compound J-32] | > 10000 | – |
